Reference: the NIST ThermoML archive (doi:10.1021/je050348f)

Assay: osmotic coefficient (dimensionless); mn = molality of the nth substance listed, in mol/kg
Conditions: 101 kPa, Liquid, Knauer vapor pressure osmometer

Cc1ccc(S(=O)(=O)[O-])cc1.[Na+] [sodium p-toluenesulfonate] + O
osmotic coefficient
Conditions	313.15 K	318.15 K	323.15 K
m1 = 0.02	0.985	0.98	0.968
m1 = 0.04	0.964	0.96	0.956
m1 = 0.06	0.944	0.941	0.939
m1 = 0.08	0.933	0.931	0.928
m1 = 0.1	0.921	0.92	0.916
m1 = 0.12	0.911	0.908	0.904
m1 = 0.14	0.902	0.898	0.894
m1 = 0.15	0.897	0.895	0.892
m1 = 0.16	0.891	0.888	0.885
m1 = 0.17	0.888	0.887	0.882
m1 = 0.2	0.867	0.864	0.86
m1 = 0.22	0.876	0.873	0.869
m1 = 0.3	0.839	0.836	0.831
m1 = 0.35	0.806	0.803	0.8
m1 = 0.4	0.771	0.76	0.755
m1 = 0.45	0.76	0.756	0.75
m1 = 0.5	0.75	0.743	0.739
m1 = 0.6	0.72	0.711	0.696
m1 = 0.7	0.71	0.685	0.676
m1 = 0.8	0.701	0.683	0.674
